In brackets after ≈: the same amount, converted by molar mass. Where two headings read alike, the source gives them in different places.
What was measured:
[1] = tested on: Candida glabrata 20/I; experiment: Antifungal microdilution broth method, C. glabrata; assay type: cell-based; settings: Nakaseomyces glabratus
Summary of the method: (§1)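 MICs were scored by eye in duplicate runs, accepted when the two differed by no more than one twofold step. Medium was RPMI-1640 (L-glutamine, 2% glucose) buffered with MOPS at pH 7.0, with DMSO-dissolved compounds serially halved per modified EUCAST protocol.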

[2] = tested on: Trichophyton interdigitale 445; experiment: Antifungal microdilution broth method, T. interdigitale; assay type: cell-based
Summary of the method: as §1

[3] = tested on: Trichosporon asahii 1188; experiment: Antifungal microdilution broth method, T. asahii; assay type: cell-based
Summary of the method: as §1

[4] = tested on: Candida krusei E28; experiment: Antifungal microdilution broth method, C. krusei; assay type: cell-based; settings: Pichia kudriavzevii
Summary of the method: as §1

[5] = tested on: Pseudomonas aeruginosa ATCC 27853, CCM 3955; experiment: Antibacterial microdilution broth method, P. aeruginosa; assay type: cell-based; settings: Pseudomonas aeruginosa, P. aeruginosa
[6] = tested on: Enterococcus faecalis ATCC 29212, CCM 4224; experiment: Antibacterial microdilution broth method, E. faecalis; assay type: cell-based; settings: Enterococcus faecalis
[7] = tested on: Mycobacterium avium 330/88; experiment: Antimycobacterial micromethod in Šula's medium, M. avium; assay type: cell-based
[8] = tested on: Mycobacterium kansasii 235/80; experiment: Antimycobacterial micromethod in Šula's medium, M. kansasii 235/80; assay type: cell-based
[9] = tested on: Aspergillus fumigatus 231; experiment: Antifungal microdilution broth method, A. fumigatus; assay type: cell-based
Summary of the method: as §1

[10] = tested on: Escherichia coli ATCC 25922, CCM 3954; experiment: Antibacterial microdilution broth method, E. coli; assay type: cell-based; settings: Escherichia coli
[11] = tested on: Klebsiella pneumoniae D 11750/08; experiment: Antibacterial microdilution broth method, K. pneumoniae; settings: K. pneumoniae D 11750/08; for MIC KP 24 h: 24 h incubation; for MIC KP 48 h: 48 h incubation
[12] = tested on: Staphylococcus epidermidis H 6966/08; experiment: Antibacterial microdilution broth method, S. epidermidis; assay type: cell-based; settings: Staphylococcus epidermidis, H6966/08, S. epidermidis
[13] = tested on: Lichtheimia corymbifera 272; experiment: Antifungal microdilution broth method, L. corymbifera; assay type: cell-based
Summary of the method: as §1

[14] = tested on: Mycobacterium tuberculosis H37Rv (331/88); experiment: Antimycobacterial micromethod in Šula's medium, M. tuberculosis; assay type: cell-based
[15] = tested on: Staphylococcus aureus ATCC 29213, CCM 4223; experiment: Antibacterial microdilution broth method, S. aureus; assay type: cell-based
[16] = tested on: M. kansasii 6509/96 (clinical isolate); experiment: Antimycobacterial micromethod in Šula's medium, M. kansasii 6509/96; assay type: cell-based; settings: Mycobacterium kansasii
[17] = 24 h incubation, read-out: MIC PA 24 h
[18] = 48 h incubation, read-out: MIC PA 48 h
[19] = 24 h incubation, read-out: MIC EF 24 h
[20] = 48 h incubation, read-out: MIC EF 48 h
[21] = 330/88, 336 h, 14 days incubation at 37 °C, read-out: MIC M. avium 330/88 14 d
[22] = 330/88, 504 h, 21 days incubation at 37 °C, read-out: MIC M. avium 330/88 21 d
[23] = 235/80, 168 h, 7 days incubation at 37 °C, read-out: MIC M. kansasii 235/80 7 d
[24] = 235/80, 336 h, 14 days incubation at 37 °C, read-out: MIC M. kansasii 235/80 14 d
[25] = 235/80, 504 h, 21 days incubation at 37 °C, read-out: MIC M. kansasii 235/80 21 d
[26] = 24 h incubation, read-out: MIC EC 24 h
[27] = 48 h incubation, read-out: MIC EC 48 h
[28] = 24 h incubation, read-out: MIC SE 24 h
[29] = 48 h incubation, read-out: MIC SE 48 h
[30] = 336 h, 14 days incubation at 37 °C, read-out: MIC Mtb. 331/88 14 d
[31] = 504 h, 21 days incubation at 37 °C, read-out: MIC Mtb. 331/88 21 d
[32] = 24 h incubation, read-out: MIC SA 24 h
[33] = 48 h incubation, read-out: MIC SA 48 h
[34] = 168 h, 7 days incubation at 37 °C, read-out: MIC M. kansasii 6509/96 7 d
[35] = 336 h, 14 days incubation at 37 °C, read-out: MIC M. kansasii 6509/96 14 d
[36] = 504 h, 21 days incubation at 37 °C, read-out: MIC M. kansasii 6509/96 21 d

SMILES	MIC ([1]; 24 h, read-out: MIC CG 24 h)	MIC ([1]; 48 h, read-out: MIC CG 48 h)	MIC ([2]; 72 h, read-out: MIC TI 72 h)	MIC ([2]; 120 h, read-out: MIC TI 120 h)	MIC ([3]; 24 h, read-out: MIC TA 24 h)	MIC ([3]; 48 h, read-out: MIC TA 48 h)	MIC ([4]; 24 h, read-out: MIC CK 24 h)	MIC ([4]; 48 h, read-out: MIC CK 48 h)	MIC [5, 17]	MIC [5, 18]	MIC [6, 19]	MIC [6, 20]	MIC [7, 21]	MIC [7, 22]	MIC [8, 23]	MIC [8, 24]	MIC [8, 25]	MIC ([9]; 24 h, read-out: MIC AF 24 h)	MIC ([9]; 48 h, read-out: MIC AF 48 h)	MIC [10, 26]	further results
O=C(O)c1ccc(N=Cc2cc(F)ccc2O)cc1 [1b, 4-[(5-Fluoro-2-hydroxybenzylidene)amino]benzoic acid]	> 500 µM	> 500 µM	> 500 µM	> 500 µM	> 500 µM	> 500 µM	> 500 µM	> 500 µM	> 500 µM	> 500 µM	> 500 µM	> 500 µM	> 1000 µM	> 1000 µM	250 µM (≈ 64.8 µg/mL)	500 µM (≈ 130 µg/mL)	500 µM (≈ 130 µg/mL)	> 500 µM	> 500 µM	> 500 µM	MIC [10, 27]: > 500 µM; MIC KP 24 h [11]: >500 µM; MIC KP 48 h [11]: >500 µM; MIC [12, 28]: > 500 µM; MIC [12, 29]: > 500 µM; MIC ([13]; 24 h, read-out: MIC LC 24 h): > 500 µM; MIC ([13]; 48 h, read-out: MIC LC 48 h): > 500 µM; MIC [14, 30]: 500 µM (≈ 130 µg/mL); MIC [14, 31]: 500 µM (≈ 130 µg/mL); MIC [15, 32]: > 500 µM; MIC [15, 33]: > 500 µM; MIC [16, 34]: 500 µM (≈ 130 µg/mL); MIC [16, 35]: 500 µM (≈ 130 µg/mL); MIC [16, 36]: 500 µM (≈ 130 µg/mL)
O=C(O)c1ccc(N=Cc2cc(Cl)ccc2O)cc1 [1c, 4-[(5-Chloro-2-hydroxybenzylidene)amino]benzoic acid]	125 µM (≈ 34.5 µg/mL)	125 µM (≈ 34.5 µg/mL)	125 µM (≈ 34.5 µg/mL)	125 µM (≈ 34.5 µg/mL)	> 125 µM	> 125 µM	125 µM (≈ 34.5 µg/mL)	125 µM (≈ 34.5 µg/mL)	> 500 µM	> 500 µM	> 500 µM	> 500 µM	1000 µM (≈ 276 µg/mL)	> 1000 µM	250 µM (≈ 68.9 µg/mL)	250 µM (≈ 68.9 µg/mL)	500 µM (≈ 138 µg/mL)	> 125 µM	> 125 µM	> 500 µM	MIC [10, 27]: > 500 µM; MIC KP 24 h [11]: >500 µM; MIC KP 48 h [11]: >500 µM; MIC [12, 28]: 62.5 µM (≈ 17.2 µg/mL); MIC [12, 29]: 62.5 µM (≈ 17.2 µg/mL); MIC ([13]; 24 h, read-out: MIC LC 24 h): > 125 µM; MIC ([13]; 48 h, read-out: MIC LC 48 h): > 125 µM; MIC [14, 30]: 250 µM (≈ 68.9 µg/mL); MIC [14, 31]: 500 µM (≈ 138 µg/mL); MIC [15, 32]: > 500 µM; MIC [15, 33]: > 500 µM; MIC [16, 34]: 500 µM (≈ 138 µg/mL); MIC [16, 35]: 500 µM (≈ 138 µg/mL); MIC [16, 36]: 1000 µM (≈ 276 µg/mL)
O=C(O)c1ccc(N=Cc2cc(Br)ccc2O)cc1 [1d, 4-[(5-Bromo-2-hydroxybenzylidene)amino]benzoic acid]	62.5 µM (≈ 20 µg/mL)	62.5 µM (≈ 20 µg/mL)	62.5 µM (≈ 20 µg/mL)	62.5 µM (≈ 20 µg/mL)	125 µM (≈ 40 µg/mL)	125 µM (≈ 40 µg/mL)	125 µM (≈ 40 µg/mL)	125 µM (≈ 40 µg/mL)	> 250 µM	> 250 µM	> 250 µM	> 250 µM	500 µM (≈ 160 µg/mL)	500 µM (≈ 160 µg/mL)	250 µM (≈ 80 µg/mL)	250 µM (≈ 80 µg/mL)	500 µM (≈ 160 µg/mL)	250 µM (≈ 80 µg/mL)	250 µM (≈ 80 µg/mL)	> 250 µM	MIC [10, 27]: > 250 µM; MIC KP 24 h [11]: >250 µM; MIC KP 48 h [11]: >250 µM; MIC [12, 28]: 62.5 µM (≈ 20 µg/mL); MIC [12, 29]: 62.5 µM (≈ 20 µg/mL); MIC ([13]; 24 h, read-out: MIC LC 24 h): > 250 µM; MIC ([13]; 48 h, read-out: MIC LC 48 h): > 250 µM; MIC [14, 30]: 250 µM (≈ 80 µg/mL); MIC [14, 31]: 500 µM (≈ 160 µg/mL); MIC [15, 32]: > 250 µM; MIC [15, 33]: > 250 µM; MIC [16, 34]: 500 µM (≈ 160 µg/mL); MIC [16, 35]: 500 µM (≈ 160 µg/mL); MIC [16, 36]: 500 µM (≈ 160 µg/mL)
O=C(O)c1ccc(N=Cc2cc(I)ccc2O)cc1 [1e, 4-[(2-Hydroxy-5-iodobenzylidene)amino]benzoic acid]	31.2 µM (≈ 11.5 µg/mL)	31.2 µM (≈ 11.5 µg/mL)	31.2 µM (≈ 11.5 µg/mL)	31.2 µM (≈ 11.5 µg/mL)	62.5 µM (≈ 22.9 µg/mL)	62.5 µM (≈ 22.9 µg/mL)	62.5 µM (≈ 22.9 µg/mL)	62.5 µM (≈ 22.9 µg/mL)	> 250 µM	> 250 µM	> 250 µM	> 250 µM	500 µM (≈ 184 µg/mL)	500 µM (≈ 184 µg/mL)	250 µM (≈ 91.8 µg/mL)	250 µM (≈ 91.8 µg/mL)	250 µM (≈ 91.8 µg/mL)	125 µM (≈ 45.9 µg/mL)	125 µM (≈ 45.9 µg/mL)	> 250 µM	MIC [10, 27]: > 250 µM; MIC KP 24 h [11]: >250 µM; MIC KP 48 h [11]: >250 µM; MIC [12, 28]: 62.5 µM (≈ 22.9 µg/mL); MIC [12, 29]: 62.5 µM (≈ 22.9 µg/mL); MIC ([13]; 24 h, read-out: MIC LC 24 h): > 125 µM; MIC ([13]; 48 h, read-out: MIC LC 48 h): > 125 µM; MIC [14, 30]: 250 µM (≈ 91.8 µg/mL); MIC [14, 31]: 250 µM (≈ 91.8 µg/mL); MIC [15, 32]: > 250 µM; MIC [15, 33]: > 250 µM; MIC [16, 34]: 250 µM (≈ 91.8 µg/mL); MIC [16, 35]: 250 µM (≈ 91.8 µg/mL); MIC [16, 36]: 500 µM (≈ 184 µg/mL)
O=C(O)c1ccc(N=Cc2cc([N+](=O)[O-])ccc2O)cc1 [1f, 4-[(2-Hydroxy-5-nitrobenzylidene)amino]benzoic acid]	> 500 µM	> 500 µM	500 µM (≈ 143 µg/mL)	500 µM (≈ 143 µg/mL)	500 µM (≈ 143 µg/mL)	500 µM (≈ 143 µg/mL)	> 500 µM	> 500 µM	> 500 µM	> 500 µM	500 µM (≈ 143 µg/mL)	500 µM (≈ 143 µg/mL)	1000 µM (≈ 286 µg/mL)	> 1000 µM	500 µM (≈ 143 µg/mL)	500 µM (≈ 143 µg/mL)	500 µM (≈ 143 µg/mL)	> 500 µM	> 500 µM	> 500 µM	MIC [10, 27]: > 500 µM; MIC KP 24 h [11]: >500 µM; MIC KP 48 h [11]: >500 µM; MIC [12, 28]: 250 µM (≈ 71.6 µg/mL); MIC [12, 29]: 250 µM (≈ 71.6 µg/mL); MIC ([13]; 24 h, read-out: MIC LC 24 h): 500 µM (≈ 143 µg/mL); MIC ([13]; 48 h, read-out: MIC LC 48 h): 500 µM (≈ 143 µg/mL); MIC [14, 30]: 250 µM (≈ 71.6 µg/mL); MIC [14, 31]: 500 µM (≈ 143 µg/mL); MIC [15, 32]: 500 µM (≈ 143 µg/mL); MIC [15, 33]: 500 µM (≈ 143 µg/mL); MIC [16, 34]: 500 µM (≈ 143 µg/mL); MIC [16, 35]: 500 µM (≈ 143 µg/mL); MIC [16, 36]: 500 µM (≈ 143 µg/mL)

Source: publication PMC7023430, “4-Aminobenzoic Acid Derivatives: Converting Folate Precursor to Antimicrobial and Cytotoxic Agents” (Biomolecules, 2019)
